Test results taken from paper PMC4117768, “Conjugation with polyamines enhances the antibacterial and anticancer activity of chloramphenicol” (Nucleic Acids Research, 2014).
“Also recorded” adds a separate entry of the source. Where two headings read alike, the source gives them in different places. Marks after values point to notes of the source that are not given here.

Legend:
[1] = test system: human peripheral blood cells; experiment: Toxicity assay in human peripheral blood cells (cell counting); format: cell-based
Description: Peripheral blood was collected in EDTA-coated tubes from five healthy volunteers (age range: 25–30 years). Cell concentration was adjusted to 1.8 × 10^9 cells/l using RPMI-1640 medium (GIBCO BRL) containing 1% Penicillin/Streptomycin. CAM or PA–CAM conjugates were added at various concentrations and cells were cultured in triplicate under a humidified 5% CO2 atmosphere for 5 days, at 37°C. In parallel, cells were cultured in the absence of CAM or PA–CAM conjugates (control cultures). Counting of cells was performed daily in a CELL-DYN 3700 Hematology Analyzer (Abbott, USA) and values were expressed as a percentage of cells measured in control cultures.
Figure S1. Toxicity assays in human peripheral blood cells. Peripheral blood was collected in EDTA-coated tubes from 5 healthy volunteers (age range: 25-30 years). Cell concentration was adjusted to 1.8×10^9 cells/l using RPMI-1640 medium (GIBCO BRL) containing 1% penicillin/streptomycin. CAM or compound 4 was added at final concentrations equal to 30 or 60 μM and cells were cultured in triplicate under a humidified 5% CO2 atmosphere for 5 days, at 37°C. Control cultures were carried out in the absence of CAM or compound 4. Cultures were counted daily in a CELL-DYN 3700 Hematology Analyzer and values are expressed as a percentage of cells measured in control cultures.

[2] = test system: Jurkat (T-cell acute lymphoblastic leukemia) cells; experiment: Toxicity assay in leukemic cell line (cell counting, Annexin V flow cytometry); format: cell-based, human; settings: for sensitivity of cells / inhibition of cell proliferation (cell counting): increasing concentrations
Description: Human leukemic cell lines, HS-Sultan (Burkitt's lymphoma) (European Collection of Cell Cultures, Salisbury, UK), Jurkat (T-cell acute lymphoblastic leukemia) and U937 (histiocytic lymphoma) (American Type Culture Collection, Manassas, USA), were adjusted to 1 × 10^9 cells/l in RPMI-1640 medium containing 1% Penicillin/Streptomycin and 10% fetal bovine serum and grown in triplicate in the presence or absence of CAM or PA–CAM conjugates for 4 days at 37°C, under a humidified 5% CO2 atmosphere. The medium was changed after 2 days of exposure; CAM or PA-CAM addition was repeated after medium change to keep the appropriate drug concentration. Aliquots were collected daily and counted in a CELL-DYN 3700 Hematology Analyzer. For cell necrosis and apoptosis assays, samples (10^6 cells) were collected daily and determined using the Annexin V-PE Apoptosis Detection Kit I (BD Pharmingen) for flow cytometry ([29]), as described by the manufacturer. Flow cytometry data were analyzed using the FlowJo flow cytometry analysis software. Necrotic and apoptotic cells were expressed as a percentage of total cells.
Figure S2. Toxicity assays in leukemic cell lines. Human leukemic cell lines, HS-Sultan, Jurkat, and U937 were adjusted to 1×10^9 cells/l in RPMI-1640 medium containing 1% Penicillin/Streptomycin and 10% fetal bovine serum and grown in triplicate in the presence or absence of CAM or compound 4 at the indicated concentrations for 5 days at 37°C, under a humidified 5% CO2 atmosphere. Aliquots were collected daily and counted in a CELL-DYN 3700 Hematology Analyzer.
Figure S4. Toxicity assays in Jurkat cells. Jurkat cells were adjusted to 1×10^9 cells/l in RPMI-1640 medium containing 1% Penicillin/Streptomycin and 10% fetal bovine serum and grown in triplicate in the presence or absence of CAM or compound 4 at the indicated concentrations for 4 days at 37°C, under a humidified 5% CO2 atmosphere. Cell necrosis and apoptosis assays were performed as described in Figure S3. Necrotic and apoptotic cells were expressed as a percentage of total cells.

[3] = test system: complex C (poly(U)-programmed ribosomes from E. coli bearing Ac[3H]Phe-tRNA at the P-site), peptidyl transferase; design: method as in PMID 12930958; settings: cited from earlier work
[4] = test system: central loop of Domain V of 23S rRNA, E. coli ribosomes; experiment: Time-resolved footprinting of PA–CAM conjugates bound to ribosomes (DMS, kethoxal, CMCT probing, primer extension); format: binding; settings: conjugate at 50 × Ki, 25°C, ratio to control lane R
Description: Complexes RI and R*I were then probed at 37°C for 10 min with DMS, kethoxal or CMCT, as described previously ([30]). The modified sites in 23S rRNA were then analyzed by primer extension with reverse transcriptase, according to Moazed et al. ([30]). […] Extension products were run on 6% polyacrylamide/7M urea gels. Identification of the modified nucleotides, quantitative scanning of the gels and normalization of the band intensities were made as previously described ([4]). The values indicated in Table 2 denote the ratio between the normalized intensity of a band of interest and the normalized intensity of the corresponding band in the control lane (ribosomes non-treated with drugs).

Structure (SMILES): O=C(N[C@H](CO)[C@H](O)c1ccc([N+](=O)[O-])cc1)C(Cl)Cl [CAM, Chloramphenicol]
- effects on other types of leukocytes ([1]; 30 μM for 24 or 48 h): negligible
- reduction in the viability of neutrophils ([1]; 30 μM for 24 or 48 h): 20%
- induction of apoptosis (flow cytometry) ([2]; 60 μM): failed to induce apoptosis
- induction of necrosis (flow cytometry) ([2]; 60 μM): failed to induce necrosis/apoptosis
- sensitivity of cells / inhibition of cell proliferation (cell counting) [2]: sensitive
- koff [3]: 0.0165 ± 0.00067 s⁻¹
- Ki ([3]; early phase): 3100 ± 300 nM
- Ki ([3]; late phase): 880 ± 70 nM

Structure (SMILES): NCCCN(CCCCN(Cc1ccccc1)Cc1ccccc1)C(=O)CCC(=O)N[C@H](CO)[C@H](O)c1ccc([N+](=O)[O-])cc1 [Compound 4]
- Relative reactivity of nucleoside A2058 ([4]; R*I binding state (3 min)): 1.25 ± 0.09^b,c
- Relative reactivity of nucleoside A2059 ([4]; R*I binding state (3 min)): 0.60 ± 0.03^b,c
- Relative reactivity of nucleoside A2062 ([4]; R*I binding state (3 min)): 0.52 ± 0.02^b,c
- Relative reactivity of nucleoside A2451 ([4]; R*I binding state (3 min)): 0.53 ± 0.05^b
- Relative reactivity of nucleoside A2602 ([4]; R*I binding state (3 min)): 0.88 ± 0.08
- Relative reactivity of nucleoside G2505 ([4]; R*I binding state (3 min)): 0.35 ± 0.02^b,c
- Relative reactivity of nucleoside U2506 ([4]; R*I binding state (3 min)): 0.65 ± 0.04^b
- Relative reactivity of nucleoside U2585 ([4]; R*I binding state (3 min)): 0.45 ± 0.02^b,c
- Relative reactivity of nucleoside U2609 ([4]; R*I binding state (3 min)): 1.00 ± 0.07
- Relative reactivity of nucleoside A2058 ([4]; RI binding state (2 s)): 1.00 ± 0.05
- Relative reactivity of nucleoside A2059 ([4]; RI binding state (2 s)): 1.00 ± 0.06
- Relative reactivity of nucleoside A2062 ([4]; RI binding state (2 s)): 1.00 ± 0.05
- Relative reactivity of nucleoside A2451 ([4]; RI binding state (2 s)): 0.48 ± 0.02^b
- Relative reactivity of nucleoside A2602 ([4]; RI binding state (2 s)): 1.00 ± 0.10
- Relative reactivity of nucleoside G2505 ([4]; RI binding state (2 s)): 0.65 ± 0.05^b
- Relative reactivity of nucleoside U2506 ([4]; RI binding state (2 s)): 0.70 ± 0.05^b
- Relative reactivity of nucleoside U2609 ([4]; RI binding state (2 s)): 1.00 ± 0.09
- effects on other types of leukocytes ([1]; 30 μM for 24 or 48 h): negligible
- effect on the viability of human monocytes and lymphocytes ([1]; 120 h culture period): little or no effect
- toxicity to neutrophils ([1]; 120 h culture period): moderate and transient toxicity
- induction of necrosis (flow cytometry) ([2]; 60 μM): induced necrosis
- sensitivity of cells / inhibition of cell proliferation (cell counting) [2]: sensitive; also recorded: more effective than CAM
